According to PMC5940250 (The Journal of General Physiology, 2018):
Structures can show the parent of a compound that is named as a salt.

What was measured:
Assay in all cases: two-electrode voltage clamp, oocytes, G
Type in all cases: cell-based
[1] = target: T1, human M channel (hKV7.2/7.3) (Homo sapiens, UniProt O43525+O43526); conditions: 100 µM; pH 7.4, room temperature; not significant
[2] = target: Shaker KV channel (Shaker H4, Δ6-46; "WT Shaker KV channel") (Drosophila melanogaster, UniProt P08510, DEL6-46/R362Q)
[3] = target: T1, human M channel (hKV7.2/7.3)
[4] = target: Shaker KV channel (Shaker H4, Δ6-46; "WT Shaker KV channel") (Drosophila melanogaster, UniProt P08510, DEL6-46/L358R/R362Q)

T1 sequence (O43526 whole entry): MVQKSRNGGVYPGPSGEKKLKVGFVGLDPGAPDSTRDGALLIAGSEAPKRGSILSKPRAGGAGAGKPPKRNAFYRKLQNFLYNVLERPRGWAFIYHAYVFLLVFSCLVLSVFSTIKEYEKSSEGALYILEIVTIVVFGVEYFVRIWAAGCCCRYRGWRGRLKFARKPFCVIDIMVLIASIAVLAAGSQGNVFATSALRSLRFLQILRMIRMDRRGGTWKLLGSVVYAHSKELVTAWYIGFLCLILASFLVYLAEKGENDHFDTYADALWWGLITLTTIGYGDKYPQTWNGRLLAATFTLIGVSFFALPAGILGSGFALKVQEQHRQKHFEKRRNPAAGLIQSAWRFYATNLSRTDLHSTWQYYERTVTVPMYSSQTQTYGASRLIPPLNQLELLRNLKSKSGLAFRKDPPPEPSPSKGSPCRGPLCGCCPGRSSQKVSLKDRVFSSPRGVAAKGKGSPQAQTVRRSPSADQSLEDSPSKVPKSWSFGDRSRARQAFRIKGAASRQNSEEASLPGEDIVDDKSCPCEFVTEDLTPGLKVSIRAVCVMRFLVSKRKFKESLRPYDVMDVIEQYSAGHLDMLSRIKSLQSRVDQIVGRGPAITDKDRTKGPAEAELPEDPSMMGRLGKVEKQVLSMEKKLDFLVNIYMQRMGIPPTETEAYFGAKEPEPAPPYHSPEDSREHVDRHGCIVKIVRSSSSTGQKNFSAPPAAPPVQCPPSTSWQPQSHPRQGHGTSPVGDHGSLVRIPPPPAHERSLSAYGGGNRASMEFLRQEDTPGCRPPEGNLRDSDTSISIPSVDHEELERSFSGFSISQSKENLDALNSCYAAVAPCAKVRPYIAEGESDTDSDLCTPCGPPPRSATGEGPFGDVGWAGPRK
T1 sequence (O43525 whole entry): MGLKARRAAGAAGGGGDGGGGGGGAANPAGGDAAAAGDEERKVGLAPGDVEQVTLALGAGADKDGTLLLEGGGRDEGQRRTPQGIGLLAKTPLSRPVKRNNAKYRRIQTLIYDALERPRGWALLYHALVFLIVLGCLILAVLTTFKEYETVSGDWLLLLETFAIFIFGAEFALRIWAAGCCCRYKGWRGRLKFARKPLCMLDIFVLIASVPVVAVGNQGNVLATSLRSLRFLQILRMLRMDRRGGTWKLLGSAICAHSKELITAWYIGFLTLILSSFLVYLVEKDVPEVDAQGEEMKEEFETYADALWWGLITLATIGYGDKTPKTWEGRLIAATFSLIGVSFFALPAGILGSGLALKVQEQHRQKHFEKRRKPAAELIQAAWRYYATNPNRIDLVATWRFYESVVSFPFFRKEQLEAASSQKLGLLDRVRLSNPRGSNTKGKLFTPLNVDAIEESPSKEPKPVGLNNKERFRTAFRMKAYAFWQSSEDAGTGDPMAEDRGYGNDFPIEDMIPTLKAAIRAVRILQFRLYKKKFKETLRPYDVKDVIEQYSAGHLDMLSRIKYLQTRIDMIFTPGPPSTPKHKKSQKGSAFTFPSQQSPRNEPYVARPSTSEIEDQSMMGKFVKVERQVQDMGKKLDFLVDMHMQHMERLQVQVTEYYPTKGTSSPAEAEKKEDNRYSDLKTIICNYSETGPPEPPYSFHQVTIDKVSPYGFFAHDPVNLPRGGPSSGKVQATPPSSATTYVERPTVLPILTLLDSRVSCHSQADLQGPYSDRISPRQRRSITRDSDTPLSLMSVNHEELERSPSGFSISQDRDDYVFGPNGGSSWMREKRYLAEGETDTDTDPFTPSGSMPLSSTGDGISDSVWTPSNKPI

ΔV ± SEM [1]	EC50 [2] [µM]	EC50 [3] [µM]	EC50 [4] [µM]	Structure (SMILES)
–1.5 ± 0.4 mV	–	–	–	CC(C)c1ccc2c(c1)CC[C@H]1[C@](C)(CNS(C)(=O)=O)CCC[C@]21C [Wu110, N-(((1R,4aS,10aR)-7-isopropyl-1,4a-dimethyl-1,2,3,4,4a,9,10,10a-octahydrophenanthren-1-yl)methyl)methanesulfonamide]
–	36	62 ± 15	70	CC(C)c1ccc2c(c1)CC[C@H]1[C@](C)(COS(=O)(=O)O)CCC[C@]21C [Wu161, ((1R,4aS,10aR)-7-isopropyl-1,4a-dimethyl-1,2,3,4,4a,9,10,10a-octahydrophenanthren-1-yl)methyl hydrogen sulfate]
–	–	12 ± 3	–	C[C@@]1(COS(=O)(=O)O)CCC[C@]2(C)c3cc(Cl)c(Cl)c(Cl)c3CC[C@@H]12 [Wu181, ((1R,4aS,10aR)-6,7,8-trichloro-1,4a-dimethyl-2,3,4,9,10,10a-hexahydrophenanthrene-1-yl)methyl hydrogen sulfate]
